{"source": "paper PMC3481155", "about": "“AhR activation underlies the CYP1A autoinduction by A-998679 in rats” (Frontiers in Genetics, 2012)", "key": {"[1]": {"assay": "5-day rat exploratory toxicology study (liver weight, clinical chemistry, histopathology)", "assay_type": "in vivo", "conditions": "5 days", "protocol": "All animal experiments were conducted in accordance with the Guiding Principles in the Use of Animals in Toxicology (http://www.toxicology.org/ai/air/air6.asp) and were approved by Abbott's Institutional Animal Care and Use Committee (IACUC). Male Sprague-Dawley rats [Crl:CD®(SD)IGS BR], weighing ~250 g at study initiation were obtained from Charles River Laboratories, Inc. (Wilmington, MA). Rats were housed singly in ventilated, stainless steel, wire-bottom hanging cages and fed non-certified Rodent Chow (Harlan Labs, Madison, WI), and water ad libitum and acclimated for at least 5 days after arrival. Rats were randomly assigned to various treatment groups (3 rats/group) and were dosed once daily by oral gavage with vehicle (0.2% hydroxypropylmethylcellulose at a dose volume of 10 ml/kg) or with 30, 100, or 200 mg/kg of A-998679. All rats were fasted overnight after their last dose, weighed and sacrificed under isoflurane anesthesia. For histopathological evaluation, liver, heart, kidney, spleen, bone (sternum) with marrow, gastrointestinal tract (duodenum with pancreas, jejunum, ileum, cecum, and colon), thymus, and lung were fixed in formalin, routinely processed, and embedded in paraffin. Paraffin sections (4 μm) were stained with hematoxylin and eosin. Liver and small intestine (jejunum) were also flash frozen in liquid nitrogen and stored at −80°C until processing for gene expression profiling. Serum clinical chemistry parameters were quantified using an Aeroset Clinical Chemistry Analyzer (Abbott Laboratories, Abbott Park, IL) and included alanine amino transferase (ALT), aspartate amino transferase (AST), gamma glutamyltransferase (GGT), and alkaline phosphatase (ALP) activities."}, "rat Cyp 2A1": {"biological_target": "T1, rat Cyp 2A1 (Rattus norvegicus, UniProt P11711)", "T1 construct": "purchased BD Gentest; host or cells: baculovirus infected insect cells", "T1 sequence (P11711 whole entry, canonical isoform)": "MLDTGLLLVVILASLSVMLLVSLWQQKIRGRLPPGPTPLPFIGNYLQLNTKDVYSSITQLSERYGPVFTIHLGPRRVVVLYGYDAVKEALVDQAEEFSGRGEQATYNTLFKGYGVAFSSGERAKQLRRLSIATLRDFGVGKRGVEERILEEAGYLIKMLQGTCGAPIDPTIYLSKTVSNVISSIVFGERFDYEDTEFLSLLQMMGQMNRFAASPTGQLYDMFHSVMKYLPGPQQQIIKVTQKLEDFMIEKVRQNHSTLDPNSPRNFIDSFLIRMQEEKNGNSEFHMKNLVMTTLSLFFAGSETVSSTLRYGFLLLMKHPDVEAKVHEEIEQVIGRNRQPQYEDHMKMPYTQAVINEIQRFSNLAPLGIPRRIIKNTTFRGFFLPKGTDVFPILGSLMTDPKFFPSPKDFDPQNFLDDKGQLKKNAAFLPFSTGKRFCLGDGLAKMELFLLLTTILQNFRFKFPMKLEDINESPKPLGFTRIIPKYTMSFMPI", "assay": "Recombinant rat Cyp phenotype profiling, 2A1", "assay_type": "in vitro ADME", "conditions": "60 min", "protocol": "Identification of the drug metabolizing enzymes (DMEs) of A-998679 was studied in cDNA expressed recombinant enzymes prepared from baculovirus infected insect cells over-expressing rat Cyp isoforms (BD Gentest, Woburn, MA) as listed in Table 2. Incubations were conducted in duplicate using Supersomes. The incubation mixture contained 100 pmol/ml of enzymes, except for Cyp1a1 (200 pmol/ml), 0.1 or 0.21 μM of [^3H]A-998679 in 100 mM phosphate buffer (pH 7.4). Reactions were initiated with the addition of NADPH at a final concentration of 1 mM and incubated at 37°C for 60 min. At the end of the incubation period, the incubations were terminated by the addition of acetonitrile/ethanol (50/50, v/v) solution. Insect control samples lacking expressed enzyme were used as negative control. The degree of metabolism of A-998679 was assessed by percent of parent remaining using the radio-HPLC method described below.\nRadiolabeled components from the above assays were profiled following separation by HPLC with on line radioflow detector. The system consisted of an Agilent 1100 Series quaternary pump and autosampler connected to a Packard 500TR flow scintillation detector. The data were processed using the Radiomatic™ Flo-one® software v3.65. The scintillant (Perkin Elmer FLO-SCINT™ III) flow was maintained at 3 ml/min. […]"}, "Mrp2": {"system": "Mrp2", "assay": "Mrp2 expression in rat small intestine", "assay_type": "in vivo", "conditions": "treated rats; data not shown", "protocol": "All animal experiments were conducted in accordance with the Guiding Principles in the Use of Animals in Toxicology (http://www.toxicology.org/ai/air/air6.asp) and were approved by Abbott's Institutional Animal Care and Use Committee (IACUC). Male Sprague-Dawley rats [Crl:CD®(SD)IGS BR], weighing ~250 g at study initiation were obtained from Charles River Laboratories, Inc. (Wilmington, MA). Rats were housed singly in ventilated, stainless steel, wire-bottom hanging cages and fed non-certified Rodent Chow (Harlan Labs, Madison, WI), and water ad libitum and acclimated for at least 5 days after arrival. […] Serum clinical chemistry parameters were quantified using an Aeroset Clinical Chemistry Analyzer (Abbott Laboratories, Abbott Park, IL) and included alanine amino transferase (ALT), aspartate amino transferase (AST), gamma glutamyltransferase (GGT), and alkaline phosphatase (ALP) activities.\nFrozen liver or jejunum were immediately added to 4 ml of TRIzol reagent (Invitrogen Life Technologies) and homogenized using a Polytron 300D homogenizer (Brinkman Instruments, Westbury, NY). […] Nucleic acid concentration was determined by OD 260 nm (Smart-Spec, Bio-Rad Laboratories, Hercules, CA), and RNA integrity was evaluated using an Agilent 2100 bioanalyzer (Agilent Technologies, Foster City, CA). […]"}, "CYP2C19": {"biological_target": "T2, CYP2C19 (Homo sapiens, UniProt P33261)", "T2 construct": "from tissue; host or cells: human liver microsomes", "T2 sequence (P33261 whole entry)": "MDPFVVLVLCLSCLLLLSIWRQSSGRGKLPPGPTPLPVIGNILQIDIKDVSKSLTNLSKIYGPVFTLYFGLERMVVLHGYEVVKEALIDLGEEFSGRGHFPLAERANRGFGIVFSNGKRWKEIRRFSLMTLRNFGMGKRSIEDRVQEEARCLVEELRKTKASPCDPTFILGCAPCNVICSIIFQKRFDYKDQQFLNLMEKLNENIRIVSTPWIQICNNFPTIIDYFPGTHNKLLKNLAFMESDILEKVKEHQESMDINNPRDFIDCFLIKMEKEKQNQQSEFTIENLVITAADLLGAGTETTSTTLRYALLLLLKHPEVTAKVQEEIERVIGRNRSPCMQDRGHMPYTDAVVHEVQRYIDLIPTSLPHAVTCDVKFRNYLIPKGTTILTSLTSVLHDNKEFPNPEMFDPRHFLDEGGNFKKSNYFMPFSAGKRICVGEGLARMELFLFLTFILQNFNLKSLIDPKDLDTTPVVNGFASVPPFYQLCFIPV", "assay": "CYP inhibition evaluation in human liver microsomes, CYP2C19 (S-mephenytoin)", "assay_type": "in vitro ADME", "conditions": "probe substrate S-mephenytoin", "protocol": "Incubations were performed in human liver microsomes using probe substrate concentrations similar to their corresponding Km values. Enzyme activity was evaluated in the presence of various concentrations of A-998679. The incubations consisted of the test article at varying concentrations (0–30 μM), probe substrate (concentration ~Km, see Table A2), human liver microsomal protein and 1 mM NADPH in 50 mM phosphate buffer at pH 7.4. Relative quantitation of the metabolites was obtained by LC-MS/MS using an ABSciex (Foster City, CA) API3000 or API4000 Qtrap hybrid linear ion trap mass spectrometer equipped with a TurboIonspray source using either PerkinElmer series 200 pumps or Agilent 1100 series pump with a Leap autosampler. Analytes were separated using a Phenomenex Prodigy ODS(3) 5 μm, 50 × 2.0 mm column at 50°C, eluted and detected under the specific conditions listed in Tables A3, A4, and A5. The analyte to internal standard peak area ratios were determined using Analyst 1.4 software (Applied Biosytems, Carlsbad, CA). The peak area ratios observed in the presence of test article were compared to the vehicle control in order to determine percent activity. To determine the IC50, the data were plotted as Log [dose] μM vs. % inhibition, and analyzed with a sigmoidal dose-response (variable slope) fitting equation. […]"}}}
{"smiles": "N#Cc1cccc(-c2noc(-c3cccnc3)n2)c1", "note": "[A-998679, 3-(5-pyridin-3-yl-1,2,4-oxadiazol-3-yl) benzonitrile]", "values": [{"measurement": "increase in relative liver weight", "setting": "[1]; 200 mg/kg/day", "result": "~ 25%"}, {"measurement": "clinical chemistry parameters", "setting": "[1]; 30-200 mg/kg/day", "result": "No significant changes"}, {"measurement": "histopathology", "setting": "[1]; 30-200 mg/kg/day", "result": "No significant changes"}, {"measurement": "change in relative liver weight", "setting": "[1]; lower doses (30 and 100 mg/kg/day)", "result": "no change"}, {"measurement": "% parent remaining", "setting": "rat Cyp 2A1; recombinant rat Cyp 2A1, 0.10 μM", "result": 100, "unit": "%"}, {"measurement": "% parent remaining", "setting": "rat Cyp 2A1; recombinant rat Cyp 2A1, 0.21 μM", "result": 100, "unit": "%"}, {"measurement": "expression of Mrp2 in small intestine", "setting": "Mrp2", "result": "increased expression"}, {"measurement": "IC50", "setting": "CYP2C19", "result": "> 30", "unit": "µM"}]}
